Consider three compounds from patent US20090042857A1, “Novel Pharmaceutical” (priority 2006, published 2009).

For the assay, the target named is T1, androgen receptor (Rattus norvegicus, UniProt P15207).
T1 sequence (P15207 1-902): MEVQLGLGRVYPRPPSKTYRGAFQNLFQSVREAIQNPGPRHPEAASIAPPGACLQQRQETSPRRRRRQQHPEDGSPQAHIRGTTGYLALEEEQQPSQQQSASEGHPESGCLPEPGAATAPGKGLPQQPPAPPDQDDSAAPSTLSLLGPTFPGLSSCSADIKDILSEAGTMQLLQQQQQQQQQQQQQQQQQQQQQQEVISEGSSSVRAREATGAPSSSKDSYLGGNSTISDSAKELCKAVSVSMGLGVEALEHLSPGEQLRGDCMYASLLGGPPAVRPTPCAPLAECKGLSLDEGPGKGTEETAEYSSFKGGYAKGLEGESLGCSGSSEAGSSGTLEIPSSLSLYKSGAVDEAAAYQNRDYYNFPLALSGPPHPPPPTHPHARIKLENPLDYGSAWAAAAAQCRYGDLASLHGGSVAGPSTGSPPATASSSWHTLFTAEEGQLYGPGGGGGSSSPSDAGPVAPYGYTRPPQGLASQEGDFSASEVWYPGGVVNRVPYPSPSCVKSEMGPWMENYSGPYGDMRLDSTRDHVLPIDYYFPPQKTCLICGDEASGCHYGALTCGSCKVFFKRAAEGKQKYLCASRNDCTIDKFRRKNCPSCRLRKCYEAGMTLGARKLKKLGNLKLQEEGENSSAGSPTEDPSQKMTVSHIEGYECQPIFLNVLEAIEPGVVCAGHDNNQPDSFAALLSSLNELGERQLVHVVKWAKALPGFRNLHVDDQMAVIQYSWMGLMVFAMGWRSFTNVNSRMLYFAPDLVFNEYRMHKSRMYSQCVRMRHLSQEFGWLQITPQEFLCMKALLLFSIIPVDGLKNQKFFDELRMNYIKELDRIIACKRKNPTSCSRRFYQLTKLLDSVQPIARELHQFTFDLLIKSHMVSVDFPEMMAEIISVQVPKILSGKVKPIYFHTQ
Briefly: Measurement of organ selective androgen receptor regulating action (organ weights in castrated, testosterone propionate-supplemented rats). It counts as in vivo, Sprague-Dawley male rat. Also on record: from tissue; host or cells: Sprague-Dawley male rat, whole animal (levator ani muscle, prostate, vesicular gland). As to conditions: testosterone propionate 0.5 mg/kg s.c. once a day, twice a day, 1 week. The protocol:
A 3-week-old Sprague-Dawley male rat was castrated, and testosterone•propionate (0.5 mg/kg) was administered subcutaneously once a day from the next day. Simultaneously, a test compound was dissolved in 10% ethanol/corn oil, and orally administered twice a day. The next day of a 1 week administration, the weights of the levator ani muscle, prostate and vesicular gland were measured. The dose of the test compound is indicated in a daily amount.
As the test compounds, compound 114, compound 158, compound 117, compound 119 and compound of Reference Example 2 were used.

Where [1] appears, read: test compound 4.143 mg/kg/day orally.
Setting [2] is: test compound 13.81 mg/kg/day orally.
Setting [3] is: test compound 3 mg/kg/day orally.
Setting [4] is: test compound 10 mg/kg/day orally.
Where [5] appears, read: test compound 0.4138 mg/kg/day orally.
Setting [6] is: test compound 1.379 mg/kg/day orally.

Structures can show the parent of a compound that is named as a salt.

“4-[(2S,3R)-3-hydroxy-2-methyl-1-pyrrolidinyl]-1-naphtonitrile methanesulfonate [compound 114]”: under setting [1], the “levator ani muscle weight, relative % to control” value was 142.1% and the “prostate weight, relative % to control” value turned out to be 90.6%. Moreover, under setting [2], the “levator ani muscle weight, relative % to control” value is given as 157.7% and the “prostate weight, relative % to control” value was determined as 99.1%.
Regarding `C[C@H]1[C@@H](C(C)(C)O)CCN1c1ccc(C#N)c2sccc12` [Reference Example 2, 4-[(2S,3S)-3-(1-hydroxy-1-methylethyl)-2-methylpyrrolidin-1-yl]-1-benzothiophene-7-carbonitrile], under setting [3], the “levator ani muscle weight, relative % to control” value came out at 108.0% and the “prostate weight, relative % to control” value turned out to be 92.0%. Moreover, under setting [4], the “levator ani muscle weight, relative % to control” value stood at 120.1% and the “prostate weight, relative % to control” value is given as 87.5%.
In the case of `C[C@H]1[C@@H](O)CCN1c1ccc(C#N)c2sccc12` [compound 119, 4-[(2S,3S)-3-hydroxy-2-methyl-1-pyrrolidinyl]-1-benzothiophene-7-carbonitrile sulfate], under setting [5], the “levator ani muscle weight, relative % to control” value was 131.5% and the “prostate weight, relative % to control” value is 87.8%. Moreover, under setting [6], the “levator ani muscle weight, relative % to control” value is given as 151.8% and the “prostate weight, relative % to control” value is on record as 91.4%.
